Assays:
[1] = test system: human myeloid monocytic leukemia cells Molm-13; assay: anti-tumor cell proliferation activity (CCK-8), Molm-13; type: cell-based; conditions: Molm-13 cells, 72 hours incubation
Protocol: (§1) The compound of the 2-aminopyrimidine skeleton of the above formula I according to the present invention was tested in vitro to inhibit the activity of human erythroleukemia cells HEL and human myeloid monocytic leukemia cells Molm-13. The control compounds Pacritinib and Fedratinib were prepared by our research group.
(§2) After the cells are resuscitated and passaged 2-3 times to stable state, 10 μL of the cell suspension was pipetted to a cell counting plate for counting, and the cell concentration was adjusted to 10×10^4 cells/mL. No cell solution was added to the outermost wells of the 96-well plate, and 100 μL of cell suspension was added to each of the remaining wells. 100 μL of medium was added to wells B2-B7 as a control group, and other wells were added with different concentrations of the compounds to be tested. After 72 hours of incubation in the incubator, 200 μL, of fresh medium was added to well A1 as a blank group, and then 20 µL of CCK-8 solution was added to each well, and the incubation continued for 4 hours. The 96-well plate was shaken at room temperature for 3 minutes, and then the absorbance at 450 nm wavelength was measured with a microplate reader, and the inhibition rate of cell growth was calculated according to the following formula:
(§3) Inhibition rate (%)=[(A control−A addition)/(A control−A blank)]×100
(§4) IC50 is the drug concentration required to inhibit half of the cell growth. According to the results of drug concentration and inhibition rate, GraphPad Prism version 5 software is used to calculate IC50 through the dose-effect curve.

[2] = test system: human erythroleukemia cells HEL; assay: anti-tumor cell proliferation activity (CCK-8), HEL; type: cell-based; conditions: 72 hours incubation
Protocol: as §1, §2, §3, §4

[3] = molecular target: T1, FLT3 (Homo sapiens, UniProt P36888); assay: in vitro FLT3 kinase activity test, Mobility Shift Assay; type: biochemical; conditions: compound concentration 0.1 μM; read-out: Percentage of inhibition against FLT3 at 0.1 μM
T1 sequence (P36888 27-993): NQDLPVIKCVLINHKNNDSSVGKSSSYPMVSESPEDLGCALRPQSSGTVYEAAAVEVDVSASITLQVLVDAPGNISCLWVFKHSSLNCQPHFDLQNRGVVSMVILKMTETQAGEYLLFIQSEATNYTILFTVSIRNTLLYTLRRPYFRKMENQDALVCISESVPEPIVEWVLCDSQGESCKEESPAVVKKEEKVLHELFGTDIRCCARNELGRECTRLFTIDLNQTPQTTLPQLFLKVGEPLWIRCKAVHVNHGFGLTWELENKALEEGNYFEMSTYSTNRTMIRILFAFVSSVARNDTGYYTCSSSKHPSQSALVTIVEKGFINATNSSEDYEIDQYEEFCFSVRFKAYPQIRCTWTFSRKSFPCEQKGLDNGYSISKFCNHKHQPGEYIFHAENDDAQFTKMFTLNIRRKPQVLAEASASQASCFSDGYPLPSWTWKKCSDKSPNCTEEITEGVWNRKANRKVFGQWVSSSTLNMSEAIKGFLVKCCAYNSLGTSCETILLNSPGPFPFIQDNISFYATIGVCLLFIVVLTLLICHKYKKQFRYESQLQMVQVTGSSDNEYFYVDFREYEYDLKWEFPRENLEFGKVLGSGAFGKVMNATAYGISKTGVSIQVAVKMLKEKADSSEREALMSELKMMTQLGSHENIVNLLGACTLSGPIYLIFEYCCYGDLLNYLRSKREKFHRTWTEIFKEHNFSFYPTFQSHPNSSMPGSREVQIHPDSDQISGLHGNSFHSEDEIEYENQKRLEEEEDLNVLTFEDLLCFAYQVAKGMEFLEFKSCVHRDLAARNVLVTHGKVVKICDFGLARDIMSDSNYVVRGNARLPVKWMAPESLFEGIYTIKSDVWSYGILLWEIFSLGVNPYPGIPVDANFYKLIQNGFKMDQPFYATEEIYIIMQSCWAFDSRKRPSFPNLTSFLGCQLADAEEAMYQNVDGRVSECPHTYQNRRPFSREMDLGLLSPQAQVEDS
Protocol: (§5) The in vitro JAK2 and FLT3 kinase activity test was performed on the compounds of the 2-aminopyrimidine backbone of the above formula I (concentration 0.1 μM) according to the present invention using Mobility Shift Assay.
(§6) The kinase buffer was composed of 50 mM HEPEs (pH 7.5) and 0.0015% BRIJ-35. The stop buffer contained a mixture of 100 mM HEPES (pH 7.5), 0.015% BRIJ-35, 0.2% coating reagent #3 and 50 mM EDTA. The compound to be tested was diluted with 100% DMSO to 50 times the highest concentration required in the reaction. The dilution of compound to be tested (100 μL) was transferred to the wells of a 96-well plate. […] was added to two wells of the plate as a control group and the plate was marked as the source plate. 10 μL of compound was transferred from the source plate to a new 96-well plate to prepare an intermediate plate. In the intermediate plate, an additional 90 μL of kinase buffer was added to each well. The intermediate plate was shaken for 10 minutes, and then 5 μL of each well of the 96-well intermediate plate was copied to a 384-well plate as an analysis plate. The prepared enzyme solution was added to each well of the 384-well plate, then incubated at room temperature for 10 minutes, and then 10 μL of the prepared peptide solution (FAM-labeled peptide and ATP in kinase-based buffer) was added. The sample was incubated at 28° C. for 1 hours, and then 25 μL of buffer was added. The conversion data from the Caliper program was copied and converted to the inhibition rate.
(§7) Inhibition rate (%)=(max−conversion)/(max−min)×100.

[4] = molecular target: JAK2 (Homo sapiens, UniProt O60674); assay: in vitro JAK2 kinase activity test, Mobility Shift Assay; type: biochemical; conditions: compound concentration 0.1 μM; read-out: Percentage of inhibition against JAK2 at 0.1 μM
JAK2, sequence (O60674 whole entry): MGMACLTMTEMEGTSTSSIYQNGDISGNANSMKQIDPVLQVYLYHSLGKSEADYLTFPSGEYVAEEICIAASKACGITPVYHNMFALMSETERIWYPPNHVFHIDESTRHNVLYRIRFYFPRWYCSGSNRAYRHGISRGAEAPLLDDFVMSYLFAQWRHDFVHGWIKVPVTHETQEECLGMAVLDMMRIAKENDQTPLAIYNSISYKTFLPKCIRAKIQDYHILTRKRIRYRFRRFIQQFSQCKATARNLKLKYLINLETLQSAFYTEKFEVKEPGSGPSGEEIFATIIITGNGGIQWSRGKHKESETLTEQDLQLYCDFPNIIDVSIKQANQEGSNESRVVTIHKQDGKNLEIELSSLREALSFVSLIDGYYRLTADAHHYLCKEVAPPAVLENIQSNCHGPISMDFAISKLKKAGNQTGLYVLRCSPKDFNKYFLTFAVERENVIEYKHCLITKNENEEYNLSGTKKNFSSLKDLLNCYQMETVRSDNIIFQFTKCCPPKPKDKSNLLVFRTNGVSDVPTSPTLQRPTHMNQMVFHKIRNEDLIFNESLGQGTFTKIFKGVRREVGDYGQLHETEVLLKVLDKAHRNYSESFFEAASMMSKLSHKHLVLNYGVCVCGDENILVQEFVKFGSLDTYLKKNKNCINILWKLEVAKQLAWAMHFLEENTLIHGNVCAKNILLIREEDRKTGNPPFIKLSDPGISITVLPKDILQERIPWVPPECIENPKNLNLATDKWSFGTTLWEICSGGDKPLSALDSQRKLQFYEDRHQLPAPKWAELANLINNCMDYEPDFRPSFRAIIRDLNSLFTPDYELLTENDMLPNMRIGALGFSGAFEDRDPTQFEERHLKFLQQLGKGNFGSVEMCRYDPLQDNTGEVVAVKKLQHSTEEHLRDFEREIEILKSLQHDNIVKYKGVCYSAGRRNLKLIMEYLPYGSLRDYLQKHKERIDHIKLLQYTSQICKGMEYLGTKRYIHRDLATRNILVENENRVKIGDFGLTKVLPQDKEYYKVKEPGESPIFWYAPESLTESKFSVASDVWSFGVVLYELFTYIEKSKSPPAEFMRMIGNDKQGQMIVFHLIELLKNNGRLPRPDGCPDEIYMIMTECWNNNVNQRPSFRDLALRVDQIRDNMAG
Protocol: as §5, with “Assay. The control compounds Pacritinib and Fedratinib were prepared by our research group.” for “Assay.”
as §6, §7

Compound: CC(=O)c1ccc(NC(=O)N2CCN(c3ccnc(Nc4ccc(N5CCOCC5)cc4)n3)CC2)cc1 [Example 6, N-(4-acetylphenyl)-4-(2-{[4-(morpholin-4-yl)phenyl]amino}pyrimidin-4-yl)piperazine-1-carboxamide]
- IC50 [1]: 77 nM
- IC50 [2]: 4300 nM
- inhibition at 0.1 µM [3]: 72.3%
- inhibition at 0.1 µM [4]: 76.7%

Compound: Cc1cnc(Nc2ccc(N3CCOCC3)cc2)nc1N1CCN(C(=O)Nc2ccc(C#N)cc2)CC1 [Example 20, N-(4-cyanophenyl)-4-(5-methyl-2-{[4-(morpholin-4-yl)phenyl]amino}pyrimidin-4-yl)piperazine-1-carboxamide]
- IC50 [1]: 72 nM
- IC50 [2]: 900 nM
- inhibition at 0.1 µM [3]: 95.2%
- inhibition at 0.1 µM [4]: 88.5%

Compound: CC(=O)c1ccc(NC(=O)N2CCN(c3nc(Nc4ccc(N5CCOCC5)cc4)ncc3C)CC2)cc1 [Example 22, N-(4-acetylphenyl)-4-(5-methyl-2-{[4-(morpholin-4-yl)phenyl]amino}pyrimidin-4-yl)piperazine-1-carboxamide]
- IC50 [1]: 42 nM
- IC50 [2]: 800 nM
- inhibition at 0.1 µM [3]: 99.1%
- inhibition at 0.1 µM [4]: 81.8%

Compound: CC(=O)c1ccc(NC(=O)N2CCN(c3nc(Nc4ccc(N5CCOCC5)cc4)ncc3C(F)(F)F)CC2)cc1 [Example 26, N-(4-acetylphenyl)-4-(5-trifluoromethyl-2-{[4-(morpholin-4-yl)phenyl]amino}pyrimidin-4-yl)piperazine-1-carboxamide]
- IC50 [1]: 83 nM
- IC50 [2]: 4600 nM
- inhibition at 0.1 µM [3]: 82.5%
- inhibition at 0.1 µM [4]: 74.6%

Compound: CC(=O)c1ccc(NC(=O)N2CCC(Nc3nc(Nc4ccc(N5CCOCC5)cc4)ncc3C)CC2)cc1 [Example 32, N-(4-acetylphenyl)-4-[(5-methyl-2-{[4-(morpholin-4-yl)phenyl]amino}pyrimidin-4-yl)amino]piperidine-1-carboxamide]
- IC50 [1]: 350 nM
- IC50 [2]: 6700 nM
- inhibition at 0.1 µM [3]: 78.6%
- inhibition at 0.1 µM [4]: 80.5%

Compound: CC(=O)c1ccc(NC(=O)C2CCN(c3nc(Nc4ccc(N5CCOCC5)cc4)ncc3C)CC2)cc1 [Example 33, N-(4-acetylphenyl)-1-(5-methyl-2-{[4-(morpholin-4-yl)phenyl]amino}pyrimidin-4-yl)piperidine-4-carboxamide]
- IC50 [1]: 62 nM
- IC50 [2]: 1700 nM
- inhibition at 0.1 µM [3]: 97%
- inhibition at 0.1 µM [4]: 74.3%

Compound: Cc1cnc(Nc2ccc(OCCN3CCCC3)cc2)nc1Nc1cccc(S(=O)(=O)NC(C)(C)C)c1 [Fedratinib, reference compound]
- IC50 [1]: 68 nM
- IC50 [2]: 890 nM
- inhibition at 0.1 µM [3]: 88.7%
- inhibition at 0.1 µM [4]: 95.2%

Compound: C1=C/COCc2cc(ccc2OCCN2CCCC2)Nc2nccc(n2)-c2cccc(c2)COC/1 [Pacritinib, reference compound]
- IC50 [1]: 23 nM
- IC50 [2]: 1100 nM
- inhibition at 0.1 µM [4]: 92%

Reference: US20220259196A1, “2-AMINOPYRIMIDINE COMPOUND AND USES THEREOF” (Shenyang Pharmaceutical University, priority 2019, published 2022)
